Experimental data reported in US12581252B2, “Substituted pyrrolo[3,4-b]pyridines as PI3K-α inhibitors” (Relay Therapeutics, Inc., priority 2020, dated 2026).

What was measured:
[1] = biological target: H1047R PIK3CA enzyme (Homo sapiens, UniProt P42336, H1047R); assay: ADP-Glo Biochemical PIK3CA Kinase Assay
[2] = cells; conditions: Homo sapiens, MCF-10A, read-out: MCF10A IC50

Chain of H1047R PIK3CA enzyme (P42336 whole entry H1047R): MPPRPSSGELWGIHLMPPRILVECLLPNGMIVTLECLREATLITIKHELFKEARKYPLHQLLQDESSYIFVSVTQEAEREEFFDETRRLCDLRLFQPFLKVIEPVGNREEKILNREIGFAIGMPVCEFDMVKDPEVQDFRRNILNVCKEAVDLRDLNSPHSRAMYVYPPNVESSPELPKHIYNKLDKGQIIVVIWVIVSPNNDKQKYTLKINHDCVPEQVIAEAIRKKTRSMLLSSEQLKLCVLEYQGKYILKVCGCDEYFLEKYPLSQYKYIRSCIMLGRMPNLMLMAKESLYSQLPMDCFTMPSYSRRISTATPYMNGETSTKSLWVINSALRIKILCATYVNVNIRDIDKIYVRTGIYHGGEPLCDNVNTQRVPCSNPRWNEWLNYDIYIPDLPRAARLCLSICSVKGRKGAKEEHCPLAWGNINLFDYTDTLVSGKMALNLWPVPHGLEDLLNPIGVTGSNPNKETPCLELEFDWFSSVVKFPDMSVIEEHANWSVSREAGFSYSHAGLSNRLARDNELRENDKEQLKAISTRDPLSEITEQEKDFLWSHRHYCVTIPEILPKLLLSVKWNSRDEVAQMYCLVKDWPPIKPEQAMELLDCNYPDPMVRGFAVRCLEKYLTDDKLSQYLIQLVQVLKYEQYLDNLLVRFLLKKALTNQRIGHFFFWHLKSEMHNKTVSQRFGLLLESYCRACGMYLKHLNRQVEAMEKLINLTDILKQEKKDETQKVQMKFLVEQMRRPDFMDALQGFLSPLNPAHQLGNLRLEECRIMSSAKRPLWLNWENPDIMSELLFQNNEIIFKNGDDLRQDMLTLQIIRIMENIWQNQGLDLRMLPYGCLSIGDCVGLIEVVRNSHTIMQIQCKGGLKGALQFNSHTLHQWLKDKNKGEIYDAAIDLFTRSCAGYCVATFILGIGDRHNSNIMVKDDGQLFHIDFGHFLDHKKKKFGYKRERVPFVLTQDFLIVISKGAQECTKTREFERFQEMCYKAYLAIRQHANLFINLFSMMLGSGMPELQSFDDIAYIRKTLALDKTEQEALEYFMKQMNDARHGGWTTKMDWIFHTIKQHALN
Chain of H1047R PIK3CA enzyme (P27986 whole entry partner): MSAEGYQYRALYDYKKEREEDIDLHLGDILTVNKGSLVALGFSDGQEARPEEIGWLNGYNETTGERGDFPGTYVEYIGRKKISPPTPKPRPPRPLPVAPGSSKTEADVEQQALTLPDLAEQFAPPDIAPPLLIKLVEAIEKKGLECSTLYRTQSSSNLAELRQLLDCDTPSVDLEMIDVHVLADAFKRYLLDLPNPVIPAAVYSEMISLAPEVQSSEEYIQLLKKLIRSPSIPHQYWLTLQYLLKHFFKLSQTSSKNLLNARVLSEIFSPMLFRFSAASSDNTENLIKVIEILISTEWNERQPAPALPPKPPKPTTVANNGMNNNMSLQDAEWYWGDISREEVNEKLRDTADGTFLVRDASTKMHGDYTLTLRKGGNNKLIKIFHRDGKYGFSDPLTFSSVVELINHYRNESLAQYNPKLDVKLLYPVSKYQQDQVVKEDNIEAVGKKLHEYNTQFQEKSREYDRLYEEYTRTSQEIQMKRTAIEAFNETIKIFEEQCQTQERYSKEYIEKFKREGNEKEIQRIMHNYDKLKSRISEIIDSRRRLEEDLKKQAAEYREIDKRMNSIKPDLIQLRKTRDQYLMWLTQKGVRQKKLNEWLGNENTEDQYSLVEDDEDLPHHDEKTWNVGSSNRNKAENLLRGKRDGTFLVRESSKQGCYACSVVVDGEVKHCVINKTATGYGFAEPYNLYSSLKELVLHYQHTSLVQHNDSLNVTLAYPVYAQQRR

Structure (SMILES)	IC50 [1] [nM]	IC50 [2] [nM]
Nc1cnc(-c2cc(NC(=O)c3cc(F)cc(C(F)(F)F)c3)c3c(c2)C(=O)NC3c2cc(F)ccc2Cl)cn1 (stereo not shown) [Compound I-1102]	≤ 100	< 1000
O=C(Nc1cc(-c2cc3cnccc3[nH]2)cc2c1C(c1cc(F)ccc1Cl)NC2=O)c1cc(F)cc(C(F)(F)F)c1 (stereo not shown) [Compound I-949]	≤ 100	1000 to 5000
O=C(Nc1cc(-c2ccc3ncnn3c2)cc2c1C(c1cc(F)ccc1C(F)F)NC2=O)c1cc(F)cc(C(F)(F)F)c1 (stereo not shown) [Compound I-1057]	≤ 100	< 1000
O=C(Nc1cc(-c2cnc3cnccn23)cc2c1C(c1cc(F)ccc1Cl)NC2=O)c1cc(F)cc(C(F)(F)F)c1 (stereo not shown) [Compound I-940]	≤ 100	< 1000
O=C1N[C@H](c2cc(F)ccc2Cl)c2c(NC(=O)N3C[C@H](C(F)F)c4ccccc43)cccc21 (single isomer, unassigned) [Compound I-2333]	≤ 100	1000 to 5000
O=C1N[C@@H](c2cc(F)ccc2Cl)c2c(NC(=O)N3C[C@](O)(C(F)(F)F)c4cc(F)ccc43)ccc(-n3ccnn3)c21 (single isomer, unassigned) [Compound I-2520]	≤ 100	< 1000
O=C(Nc1cc(Nc2ncco2)cc2c1C(c1cc(F)ccc1Cl)NC2=O)c1cc(F)cc(C(F)(F)F)c1 (stereo not shown) [Compound I-961]	≤ 100	< 1000
Cc1ccccc1[C@H]1NC(=O)c2cccc(NC(=O)c3csc4c(F)cccc34)c21 [Compound I-38]	100 to 500	1000 to 5000
Cc1ccccc1C1NC(=O)c2cccc(NC(=O)c3nsc4ccccc34)c21 (stereo not shown) [Compound I-13, N-(1-Oxo-3-(o-tolyl)isoindolin-4-yl)benzo[d]isothiazole-3-carboxamide]	100 to 500	1000 to 5000
O=C(Nc1cc(-c2ccc3ncccc3c2)cc2c1[C@H](c1cc(F)ccc1Cl)NC2=O)c1cc(F)cc(C(F)(F)F)c1 [Compound I-894]	≤ 100	< 1000
O=C1NC(c2cc(F)ccc2Cl)c2c(Nc3nccc4c(C(F)(F)F)cc(F)cc34)cc(Br)cc21 (stereo not shown) [Compound I-978]	≤ 100	< 1000
O=C1N[C@@H](c2cc(F)ccc2Cl)c2c(NC(=O)N3CCc4ccccc43)cc(-c3ccc4ncnn4c3)cc21 (stereo in doubt) [Compound I-1715]	≤ 100	< 1000
O=C(Nc1cc(CS(=O)(=O)C2CC2)cc2c1C(c1cc(F)ccc1Cl)NC2=O)c1cc(F)cc(C(F)(F)F)c1 (stereo not shown) [Compound I-1081]	≤ 100	< 1000
O=C(Nc1cc(-c2ccc3ncnn3c2)cc2c1[C@H](c1cc(F)ccc1Cl)NC2=O)c1cc(F)cc(OC(F)(F)F)c1 (stereo in doubt) [Compound I-1111]	≤ 100	< 1000
CC(C)(O)Cn1cc(-c2cc(NC(=O)c3cc(F)cc(C(F)(F)F)c3)c3c(c2)C(=O)N[C@H]3c2cc(F)ccc2Cl)cn1 [Compound I-1097]	≤ 100	< 1000
O=C(Nc1cc(-c2cnn(C3COC3)c2)cc2c1C(c1cc(F)ccc1Cl)NC2=O)c1cc(F)cc(C(F)(F)F)c1 (stereo not shown) [Compound I-904]	≤ 100	< 1000
N#CCc1cc(NC(=O)N2C[C@](O)(C(F)(F)F)c3ccccc32)c2c(c1)C(=O)N[C@@H]2c1cc(F)ccc1Cl (single isomer, unassigned) [Compound I-2605]	≤ 100	< 1000
O=C1NCc2cc(-c3cc(NC(=O)c4cc(F)cc(C(F)(F)F)c4)c4c(c3)C(=O)NC4c3cc(F)ccc3Cl)ccc2O1 (stereo not shown) [Compound I-981]	≤ 100	< 1000
O=C(Nc1cc(C2CC(O)C2)cc2c1C(c1cc(F)ccc1Cl)NC2=O)c1cc(F)cc(C(F)(F)F)c1 (stereo not shown) [Compound I-1019]	≤ 100	< 1000
O=C1NC(c2cc(F)ccc2Cl)c2c(NC(=O)N3CC(O)(C(F)(F)F)c4ccccc43)cc(Cl)cc21 (mixture of isomers) [Compound I-2483]	≤ 100	< 1000
Cc1ccccc1C1NC(=O)c2cccc(NC(=O)c3coc4ccc(F)cc34)c21 (stereo not shown) [Compound I-19]	500 to 1000	1000 to 5000
Cn1nncc1-c1cc(NC(=O)c2cc(F)cc(C(F)(F)F)c2)c2c(c1)C(=O)NC2c1cc(F)ccc1Cl (stereo not shown) [Compound I-1030]	≤ 100	< 1000
CS(=O)(=O)Nc1cc(NC(=O)c2cc(F)cc(C(F)(F)F)c2)c2c(c1)C(=O)NC2c1cc(F)ccc1Cl (stereo not shown) [Compound I-1159]	≤ 100	< 1000
O=C(Nc1cc(-c2cccc3c2CCNC3=O)cc2c1C(c1cc(F)ccc1Cl)NC2=O)c1cc(F)cc(C(F)(F)F)c1 (stereo not shown) [Compound I-1042]	≤ 100	< 1000
CC[C@@]1(O)CN(C(=O)Nc2cccc3c2[C@@H](c2cc(F)ccc2Cl)NC3=O)c2ccc(F)cc21 (single isomer, unassigned) [Compound I-2461]	≤ 100	< 1000
O=C(Nc1cc(NC2=NCCO2)cc2c1C(c1cc(F)ccc1Cl)NC2=O)c1cc(F)cc(C(F)(F)F)c1 (stereo not shown) [Compound I-2256]	≤ 100	1000 to 5000
